Laboratory results taken from patent US20230263746A1, “Synergistic Polyamine Combinations And Methods Therefor” (Compound Solutions Inc., priority 2022, published 2023).
Entries after “also recorded” stand apart in the source; their conditions may differ.

Columns and labels:
wildtype C. elegans [1] = assay: Lifespan in a C. elegans model; assay type: in vivo; settings: for effect on lifespan compared to control: 100 μM resveratrol, 500 μM NMN, 20 μg/mL spermidine, 6 μg/mL spermine, or 20 μg/mL spermidine with 6 μg/mL spermine, scored daily until all animals dead; for fraction of live organisms at the same date compared to control: at and after day 12 (latter third in life), FIG. 4
Description: One physiological marker found to be beneficially and synergistically modulated by the compositions presented herein is lifespan. […] An additional control group was given no treatment. All groups were loaded into chips at the L4-stage. From the 1st day of adulthood, the animals were switched to heat-killed OP50 plus the appropriate compound. Chips were scored daily until all animals were dead.

wildtype C. elegans [2] = assay: Locomotor activity (healthspan) scoring in C. elegans with respect to age; assay type: in vivo
Description: FIG. 7 depicts a method of scoring locomotor activity in C. elegans wherein the animal's displacement from a fixed boundary determines an activity score. […] Using C. elegans as test subjects, this measurement can be accomplished by assigning each animal a digitally fixed boundary and observing each animal's displacement from that boundary. […] An additional control group was given no treatment. All groups were loaded into chips at the L4-stage. From the 1st day of adulthood, the animals were switched to heat-killed OP50 plus the appropriate compound. The displacement of each animal from its assigned fixed boundary determined an activity score.

[3] = days 10 and 12 of animal life, 100 μM resveratrol, 500 μM NMN

| Structure (SMILES) | effect on lifespan compared to control (wildtype C. elegans [1]) | locomotor activity compared to untreated/wildtype (wildtype C. elegans [2]; [3]) | fraction of live organisms at the same date compared to control (wildtype C. elegans [1]) | locomotor activity compared to untreated/wildtype (wildtype C. elegans [2]; with respect to age (all ages scored), 20 μg/mL spermidine) | locomotor activity compared to untreated/wildtype (wildtype C. elegans [2]; day 8 of animal life, 6 μg/mL spermine) | locomotor activity compared to untreated/wildtype (wildtype C. elegans [2]; later ages (after day 8), 6 μg/mL spermine) |
| --- | --- | --- | --- | --- | --- | --- |
| NC(=O)c1ccc[n+]([C@@H]2O[C@H](COP(=O)([O-])O)[C@@H](O)[C@H]2O)c1 [NMN, nicotinamide mononucleotide, reference compound] | strongest increase to lifespan compared to control | significantly higher levels of activity than the wildtype C. elegans; also recorded: significantly higher levels of activity than untreated groups | – | – | – | – |
| Oc1ccc(C=Cc2cc(O)cc(O)c2)cc1 [resveratrol, reference compound] | strongest increase to lifespan compared to control | remain more active than the wildtype C. elegans; also recorded: significantly higher levels of activity than untreated groups | – | – | – | – |
| NCCCCNCCCN [spermidine] | weakest effect on lifespan, yet still significant; also recorded: slight lifespan extension compared to the untreated group | – | increased over control | do not show statistically significant difference in activity levels compared to wildtype C. elegans; also recorded: did not show any significant difference in activity levels compared to the untreated group | – | – |
| NCCCNCCCCNCCCN [spermine] | significant effects on lifespan | – | increased over control | – | significantly more activity; also recorded: significant differences in activity levels compared to the untreated group | does not seem to persist significantly into later ages; also recorded: did not persist into later ages |
